Source: patent US5703056A, “Non-invasive imaging of gene transfer” (priority 1995, dated 1997)

Columns and labels:
[1] = Quantitative autoradiography of 2-[14C]-FIAU in i.c. RG2TK+ and RG2 tumors; assay type: in vivo, rat; conditions: rat, iv, 50 uCi
Method: (§1) Two rats were prepared with i.c. RG2TK+ and RG2 tumors as described above. […] The brain was rapidly extracted and frozen in preparation for cryosectioning and quantitative autoradiography (QAR). [Blasberg, Seminars in Neurology] […] To convert the x-ray images to tissue radioactivity (nCi/g), the optical density of the standards was measured by computerized image analysis. A standard curve that relates mean optical density and tissue radioactivity was generated for each film. […]

RG2TK+ and RG2 tumors = test: as above; assay type: in vivo, rat; conditions: for Sensitivity* Δ(substrate % dose/g)/Δ(HSV1TK mRNA/S28 RNA IOD): autoradiographic data
Method: as §1

[2] = system: in vivo transduced RG2(TK+) tumor; test: Quantitative autoradiography of 2-[14C]-FIAU after in vivo transfection of RG2 tumors by the STK retrovirus; set-up: species or system rat; conditions: 24 h
Method: (§2) Imaging in vivo transfection of RG2 tumors by the STK retrovirus in experimental animals. […] The left hemisphere was inoculated with gp-STK-A2 vector-producer cells only. Ten days after inoculation, animals were injected i.v. with 50 uCi of 2-[^14 C]-FIAU, killed 24 hours later and the brain was processed for QAR and histology. The HSV1-tk transfected tumor was well visualized on the autoradiographic image (FIG. 11B). […] Surrounding normal brain and the area inoculated only with gp-STK-A2 vector-producer cells are poorly or not at all visualized. […] Quantitative analysis yielded mean activities of 0.34±0.24% dose/g for the in vivo transduced RG2(TK+) and 0.028±0.023% dose/g for the gp-STK-A2 vector-producer cell inoculated area prior to rinsing.

[3] = as above; set-up: species or system rat; conditions: rat, iv, 50 uCi
Method: as §2

`O=c1[nH]c(=O)n([C@@H]2O[C@H](CO)[C@@H](O)[C@@H]2F)cc1I` [FIAU, 2'-fluoro-5-iodo-1-β-D-arabinofuranosyl-uracil] gave a tissue uptake at 24 h ([1]; brain, 24 h, level of detection on the autoradiograms, read-out: adjacent brain activity) of under 0.005 %ID/g, a tissue uptake at 24 h ([1]; i.c. rg2tk+ tumor, i.c. RG2TK+ tumor, 24 h, read-out: peak activity) of 0.43 %ID/g and a tissue uptake at 24 h ([1]; intracerebral tumor, i.c. RG2TK+ tumor, 24 h after 50 uCi 2-[14C]-FIAU i.v., read-out: mean activity) of 0.18 ± 0.14 %ID/g. The “difference in radioactivity localized to transduced compared to non-transduced tumor” value (RG2TK+ and RG2 tumors; 4 hours after tracer, RG2TK#16 vs RG2 i.c., non-rinsed autoradiogram) was “only a small difference”, the “Sensitivity* Δ(substrate % dose/g)/Δ(HSV1TK mRNA/S28 RNA IOD)” value (RG2TK+ and RG2 tumors; RG2TK#16/RG2 i.c. tumors) was 0.0058 and the “Sensitivity* Δ(substrate % dose/g)/Δ(HSV1TK mRNA/S28 RNA IOD)” value (RG2TK+ and RG2 tumors; RG2TK+/RG2 i.c. tumors) was 0.0039. For the same compound, the peak activity (RG2TK+ and RG2 tumors; i.c. RG2TK+ tumor, 24 h) was 0.43 % dose/g, the adjacent brain activity ([2]; level of detection on the autoradiograms) was “below the level of detection” and the peak activity ([2]; in vivo transduced RG2(TK+) tumor) was 0.96 % dose/g. The tissue uptake at 24 h ([3]; gp-STK-A2 vector-producer cell inoculated area, prior to rinsing, read-out: mean activity) was 0.028 ± 0.023 %ID/g, the tissue uptake at 24 h ([3]; in vivo transduced RG2(TK+) tumor, prior to rinsing, read-out: mean activity) was 0.34 ± 0.24 %ID/g and the tissue uptake at 24 h ([3]; in vivo transduced RG2(TK+) tumor, read-out: peak activity) was 0.96 %ID/g.
